Assay results: publication PMC6934184, “Selective DNA-PKcs inhibition extends the therapeutic index of localized radiotherapy and chemotherapy” (The Journal of Clinical Investigation, 2019)

Target: T1, EPHA2 (Homo sapiens, UniProt P29317)
T1 construct: purchased Thermo Fisher Scientific (Life Technologies) SelectScreen
Test: SelectScreen Z'LYTE
Format: biochemical
Method in brief: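 SelectScreen broad panel; activity (Z'LYTE, Adapta) plus binding formats. ATP: Km app for CSF1R Z'LYTE; 10 for CAMK1 Adapta. Readout = % per kinase.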

T1 sequence (P29317 24-976): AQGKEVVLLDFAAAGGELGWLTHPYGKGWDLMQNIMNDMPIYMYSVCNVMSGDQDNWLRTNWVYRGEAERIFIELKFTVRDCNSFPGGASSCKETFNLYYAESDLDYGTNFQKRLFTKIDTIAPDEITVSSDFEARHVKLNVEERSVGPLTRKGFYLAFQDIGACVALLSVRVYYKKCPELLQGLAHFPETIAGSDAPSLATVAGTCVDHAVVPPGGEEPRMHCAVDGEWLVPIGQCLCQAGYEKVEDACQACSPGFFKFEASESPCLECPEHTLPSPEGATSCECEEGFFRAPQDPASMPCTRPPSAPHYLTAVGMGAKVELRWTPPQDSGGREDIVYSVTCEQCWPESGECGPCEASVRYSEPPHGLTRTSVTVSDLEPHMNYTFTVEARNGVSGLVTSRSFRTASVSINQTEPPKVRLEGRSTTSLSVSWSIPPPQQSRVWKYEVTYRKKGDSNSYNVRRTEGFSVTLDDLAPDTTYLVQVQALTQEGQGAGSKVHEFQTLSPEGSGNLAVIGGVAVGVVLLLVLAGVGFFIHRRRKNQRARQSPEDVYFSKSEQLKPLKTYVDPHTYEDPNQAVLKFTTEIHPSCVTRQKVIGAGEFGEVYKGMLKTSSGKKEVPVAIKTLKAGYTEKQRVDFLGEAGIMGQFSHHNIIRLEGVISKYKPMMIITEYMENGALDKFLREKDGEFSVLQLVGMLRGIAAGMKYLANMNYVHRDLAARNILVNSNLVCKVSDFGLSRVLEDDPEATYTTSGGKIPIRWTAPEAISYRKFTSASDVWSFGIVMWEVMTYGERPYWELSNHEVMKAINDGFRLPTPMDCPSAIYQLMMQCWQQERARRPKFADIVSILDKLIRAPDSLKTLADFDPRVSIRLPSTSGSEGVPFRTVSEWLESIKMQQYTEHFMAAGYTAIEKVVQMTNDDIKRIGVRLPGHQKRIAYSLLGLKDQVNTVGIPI

CN(C(=O)CN1CCOCC1)c1ccc2sc3c(-c4cccc5c(=O)cc(N6CC7CCC(C6)O7)oc45)cccc3c2c1 [NU5455]
inhibition at 1 µM: 4.8%
